Data: ChEMBL document CHEMBL6153162, “Receptor-Interacting Protein Kinase 1 (RIPK1) Inhibitors as Potential Treatment for Several Inflammatory and Neurodegenerative Diseases” (ACS Med Chem Lett, 2025)

Biological target: PI3-kinase p110-delta/p85-alpha (Homo sapiens, UniProt O00329)
Assay: Inhibition of His-tagged full-length recombinant human PIK3CD/PIK3R1 extracted from baculovirus expression system incubated for 1 hr by FRET assay

Chain of PI3-kinase p110-delta/p85-alpha (P27986 whole entry): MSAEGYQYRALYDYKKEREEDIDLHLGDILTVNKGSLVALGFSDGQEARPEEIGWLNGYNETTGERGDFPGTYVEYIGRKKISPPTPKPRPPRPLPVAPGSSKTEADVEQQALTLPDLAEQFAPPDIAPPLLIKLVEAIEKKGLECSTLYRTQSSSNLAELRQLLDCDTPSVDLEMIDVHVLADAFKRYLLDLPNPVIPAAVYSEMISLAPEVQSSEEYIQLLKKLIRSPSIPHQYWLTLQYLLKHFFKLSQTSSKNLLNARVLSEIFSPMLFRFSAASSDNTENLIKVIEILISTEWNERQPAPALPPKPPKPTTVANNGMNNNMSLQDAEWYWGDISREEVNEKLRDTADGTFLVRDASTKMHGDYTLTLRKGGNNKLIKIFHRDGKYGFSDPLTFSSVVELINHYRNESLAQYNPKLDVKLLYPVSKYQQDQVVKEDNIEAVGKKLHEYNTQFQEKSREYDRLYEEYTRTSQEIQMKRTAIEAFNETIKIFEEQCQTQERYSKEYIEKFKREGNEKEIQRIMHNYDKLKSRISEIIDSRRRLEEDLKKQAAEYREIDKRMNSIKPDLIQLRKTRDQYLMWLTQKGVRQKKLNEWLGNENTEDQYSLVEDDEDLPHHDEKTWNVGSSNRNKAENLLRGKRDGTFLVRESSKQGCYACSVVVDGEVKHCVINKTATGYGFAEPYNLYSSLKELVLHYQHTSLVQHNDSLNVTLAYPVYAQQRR
Chain of PI3-kinase p110-delta/p85-alpha (O00329 whole entry): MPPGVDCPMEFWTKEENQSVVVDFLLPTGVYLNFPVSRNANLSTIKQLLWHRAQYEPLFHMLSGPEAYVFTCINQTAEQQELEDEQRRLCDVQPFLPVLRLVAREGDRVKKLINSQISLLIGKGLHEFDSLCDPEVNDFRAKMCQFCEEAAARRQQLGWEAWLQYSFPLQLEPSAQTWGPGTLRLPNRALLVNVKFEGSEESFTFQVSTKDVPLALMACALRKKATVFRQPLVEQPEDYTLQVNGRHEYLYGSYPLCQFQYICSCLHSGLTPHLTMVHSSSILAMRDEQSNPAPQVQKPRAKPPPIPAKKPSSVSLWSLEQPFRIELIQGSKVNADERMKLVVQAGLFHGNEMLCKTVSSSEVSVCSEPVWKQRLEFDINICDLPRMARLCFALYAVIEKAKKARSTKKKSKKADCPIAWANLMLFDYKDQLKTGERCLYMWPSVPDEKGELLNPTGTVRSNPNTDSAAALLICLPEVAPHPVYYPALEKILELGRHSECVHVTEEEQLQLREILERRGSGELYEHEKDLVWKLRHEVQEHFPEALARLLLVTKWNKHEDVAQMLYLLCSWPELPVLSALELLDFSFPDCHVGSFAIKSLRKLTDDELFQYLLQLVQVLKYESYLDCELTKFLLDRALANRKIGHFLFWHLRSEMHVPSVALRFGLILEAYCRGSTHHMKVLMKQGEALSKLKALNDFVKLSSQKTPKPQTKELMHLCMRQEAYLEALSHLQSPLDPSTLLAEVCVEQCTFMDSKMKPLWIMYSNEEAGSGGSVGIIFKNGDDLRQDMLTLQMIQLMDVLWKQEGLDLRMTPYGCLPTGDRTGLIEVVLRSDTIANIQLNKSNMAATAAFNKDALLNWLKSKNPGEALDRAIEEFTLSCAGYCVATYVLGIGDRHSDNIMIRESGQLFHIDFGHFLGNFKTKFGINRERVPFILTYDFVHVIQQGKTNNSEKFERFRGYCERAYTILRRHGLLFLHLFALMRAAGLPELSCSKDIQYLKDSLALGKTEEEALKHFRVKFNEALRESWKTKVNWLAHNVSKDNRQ

| SMILES | IC50 [nM] |
| --- | --- |
| Cc1ccc(-c2ccn3nc(N)nc3c2)c(F)c1C(=O)NCCC(F)c1ccc(Cl)cc1 (racemic) | > 15 |
| Cc1cc(F)c(-c2ccn3nc(N)nc3c2)cc1C(=O)NCCC(O)c1ccc(C(F)(F)F)cc1 (racemic) | > 15 |
| Cc1ccc(-c2ccn3nc(N)nc3c2)c(F)c1C(=O)NC[C@@H](F)[C@H](O)c1ccc(Cl)cc1 | > 15 |
| Cc1ccc(-c2ccn3nc(N)nc3c2)c(F)c1C(=O)NCC(F)(F)C(O)C1CC(F)(F)C1 (single isomer, unassigned) | > 15 |

Other lines, results leading:

| IC50 [nM] | SMILES |
| --- | --- |
| > 15 | Cc1ccc(-c2ccn3nc(N)nc3c2)c(F)c1C(=O)NCC(F)(F)C(O)c1ccc(Cl)c(Cl)c1 (single isomer, unassigned) |
| > 15 | Cc1ccc(-c2ccn3nc(N)nc3c2)c(F)c1C(=O)NC(CF)CC(O)c1ccc(Cl)cc1 (stereo not drawn) |
| > 15 | Cc1ccc(-c2ccn3nc(N)nc3c2)c(F)c1C(=O)NCCC(O)c1ccc(Cl)cn1 (stereo not drawn) |
| 15 | COc1c(F)cccc1C(O)CCNC(=O)c1c(C)ccc(-c2ccn3nc(N)nc3c2)c1F (single isomer, unassigned) |
